Experimental data: US12180187B2, “1-phenyl-5-azinylpyrazolyl-3-oxyalkyl acids and their use for controlling unwanted plant growth” (BAYER AKTIENGESELLSCHAFT, priority 2019, dated 2024)

Legend:
ALOMY = assay: Pre-emergence action against ALOMY, 1280 g/ha; type: in vivo, Alopecurus myosuroides; conditions: visual scoring after about 3 weeks vs untreated controls, 100% = plants have died, 0% = like control plants
In short: (§1)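 In greenhouse pots of sandy loam, sown weed seeds were covered with soil and treated pre-emergence with the compound in water (600 L/ha, 0.5% additive). Efficacy was assessed visually as percent of untreated control after about 3 weeks.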

DIGSA = assay: Pre-emergence action against DIGSA, 1280 g/ha; type: in vivo, Digitaria sanguinalis; conditions: visual scoring after about 3 weeks vs untreated controls, 100% = plants have died, 0% = like control plants
In short: as §1

VERPE = assay: Pre-emergence action against VERPE, 1280 g/ha; type: in vivo, Veronica persica; conditions: scored visually after about 3 weeks vs untreated controls (100% = plants have died)
In short: as §1

ECHGC = assay: Pre-emergence action at 320 g/ha against ECHGC; type: in vivo, Echinochloa crus-galli; conditions: visual scoring after about 3 weeks vs untreated controls
In short: (§2)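 Effect rated visually (% vs untreated control) about 3 weeks after pre-emergence spraying of WP/EC formulation onto soil; spray carried 0.5% additive at 600 l/ha water.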

PHBPU [1] = assay: Pre-emergence action at 320 g/ha against PHBPU; type: in vivo; conditions: visual scoring after about 3 weeks vs untreated controls
In short: as §2

VIOTR = assay: Pre-emergence action at 320 g/ha against VIOTR; type: in vivo, Viola tricolor; conditions: dosage 320 g/ha
In short: as §2

ABUTH = assay: Post-emergence action against ABUTH, 1.28 kg/ha; type: in vivo, Abutilon theophrasti; conditions: dosage 1280 g/ha, visual rating about 3 weeks after treatment vs untreated controls (100% = plants died)
In short: (§3)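 Foliar application at the one-leaf stage: compound as WP or EC in water with 0.5% additive, sprayed at 600 L/ha. Plants are kept about 3 weeks in the greenhouse, then % herbicidal action is estimated visually (100% = death).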

STEME = assay: Post-emergence action against STEME, 1.28 kg/ha; type: in vivo, Stellaria media; conditions: dosage 1280 g/ha, visual rating about 3 weeks after treatment vs untreated controls (100% = plants died)
In short: as §3

ECHCG = assay: Post-emergence action at 320 g/ha against ECHCG; type: in vivo, Echinochloa crus-galli; conditions: dosage 320 g/ha, visual rating about 3 weeks after treatment vs untreated controls (100% = plants died)
In short: (§4)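 Greenhouse-grown plants sprayed post-emergence at the one-leaf stage, 2 to 3 weeks after sowing, with WP or EC formulations plus 0.5% additive at 600 l/ha water, at 320 g/ha. Activity rated visually after about 3 weeks versus untreated controls (100% = plants died, 0% = like control).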

AMARE [2] = assay: Post-emergence action at 320 g/ha against AMARE; type: in vivo, Amaranthus retroflexus; conditions: visual rating about 3 weeks after treatment vs untreated controls
In short: as §4

PHBPU [3] = assay: Post-emergence action at 320 g/ha against PHBPU; type: in vivo; conditions: visual rating about 3 weeks after treatment vs untreated controls
In short: as §4

POLCO = assay: Post-emergence action at 320 g/ha against POLCO; type: in vivo, Fallopia convolvulus (Polygonum convolvulus); conditions: visual rating about 3 weeks after treatment vs untreated controls
In short: as §4

AVEFA = assay: Post-emergence action at 320 g/ha against AVEFA; type: in vivo; conditions: visual rating about 3 weeks after treatment vs untreated controls
In short: as §4

AMARE [4] = assay: Post-emergence action against AMARE, 1.28 kg/ha; type: in vivo, Amaranthus retroflexus; conditions: dosage 1280 g/ha, visual rating about 3 weeks after treatment vs untreated controls (100% = plants died)
In short: as §3

KCHSC [5] = assay: Pre-emergence action against KCHSC, 1280 g/ha; type: in vivo, Bassia scoparia; conditions: scored visually after about 3 weeks vs untreated controls (100% = plants have died)
In short: as §1

KCHSC [6] = assay: Post-emergence action against KCHSC, 1.28 kg/ha; type: in vivo, Bassia scoparia; conditions: dosage 1280 g/ha, visual rating about 3 weeks after treatment vs untreated controls (100% = plants died)
In short: as §3

HORMU = assay: Post-emergence action at 320 g/ha against HORMU; type: in vivo, Hordeum murinum; conditions: visual rating about 3 weeks after treatment vs untreated controls
Source text: Accordingly, the compounds of the invention have good herbicidal action against a broad spectrum of weed grasses and broad-leaved weeds and are therefore suitable for controlling unwanted vegetation by the post-emergence method. • b) Seeds of monocotyledonous and dicotyledonous weeds and crop plants are placed in sandy loam in plastic or organic planting pots, covered with soil and cultivated in a greenhouse under controlled growth conditions. 2 to 3 weeks after sowing, the test plants are treated at the one-leaf stage. The compounds of the invention, formulated in the form of wettable powders (WP) or as emulsion concentrates (EC), are then sprayed onto the green parts of the plants as aqueous suspension or emulsion with addition of 0.5% additive at a water application rate of 600 l/ha (converted). After the test plants have been kept in the greenhouse under optimum growth conditions for about 3 weeks, the activity of the preparations is rated visually in comparison to untreated controls. For example, 100% activity=the plants have died, 0% activity=like control plants. Tables 39 to 49 below show the effects of selected compounds of the general formula (I) according to Tables 1 and 2 on various harmful plants and at an application rate corresponding to 320 g/ha, which were obtained by the experimental procedure mentioned above.

| SMILES | Pre-emergence action against ALOMY (ALOMY) [%] | Pre-emergence action against DIGSA (DIGSA) [%] | Pre-emergence action against VERPE (VERPE) [%] | Pre-emergence action against ECHGC in % (ECHGC) [%] | Pre-emergence action against PHBPU in % (PHBPU [1]) [%] | Pre-emergence action against VIOTR in % (VIOTR) [%] | Post-emergence action against ABUTH (ABUTH) [%] | Post-emergence action against STEME (STEME) [%] | Post-emergence action at 320 g/ha against ECHCG in % (ECHCG) [%] | Post-emergence action against AMARE in % (AMARE [2]) [%] | Post-emergence action against PHBPU in % (PHBPU [3]) [%] | Post-emergence action against POLCO in % (POLCO) [%] | Post-emergence action against AVEFA in % (AVEFA) [%] | Post-emergence action against AMARE (AMARE [4]) [%] | Pre-emergence action against KCHSC (KCHSC [5]) [%] | Post-emergence action against KCHSC (KCHSC [6]) [%] | Post-emergence action against HORMU in % (HORMU) [%] |
| --- | --- | --- | --- | --- | --- | --- | --- | --- | --- | --- | --- | --- | --- | --- | --- | --- | --- |
| CCOC(=O)COc1nn(-c2ccccc2F)c(-c2ccc(F)nc2)c1C(F)(F)F [VII-010] | 100 | 100 | 100 | 100 | 90 | 100 | 90 | 100 | 90 | 90 | 90 | 80 | 100 | – | – | – | – |
| CCOC(=O)COc1nn(-c2ccccc2F)c(-c2cncc(F)c2)c1Br [VII-015] | 90 | 90 | 100 | 90 | 90 | 100 | 90 | 100 | 90 | 90 | 90 | 100 | 90 | 90 | – | – | – |
| O=C(O)COc1nn(-c2ccccc2F)c(-c2cncc(F)c2)c1Br [VII-025] | 100 | 100 | 100 | 100 | 90 | 100 | 90 | 100 | 90 | 90 | 90 | 90 | 90 | 90 | 90 | – | – |
| CCC(Oc1nn(-c2ccccc2F)c(-c2ccc(F)nc2)c1Br)C(=O)OC (centres unmarked) [VII-029] | 90 | 100 | 100 | – | – | 100 | – | 100 | 80 | – | – | 80 | 90 | 90 | 90 | 90 | 90 |
| COC(=O)COc1nn(-c2ccccc2F)c(-c2ccc(F)nc2)c1C(F)(F)F [VII-031] | 100 | 100 | 100 | 90 | 80 | 100 | 90 | 100 | 90 | 90 | 90 | 90 | 90 | 90 | – | – | – |
| COC(=O)COc1nn(-c2ccccc2F)c(-c2cncc(F)c2)c1Br [VII-035] | 100 | 90 | 100 | 90 | 90 | 100 | 90 | 100 | 90 | 90 | 100 | 90 | 90 | 90 | 90 | – | – |
